Activity data for one compound are collected here from ChEMBL document CHEMBL6153032, “Discovery of a highly potent, N-terminal domain-targeting degrader of AR-FL/AR-V7 for the treatment of prostate cancer” (Eur J Med Chem, 2025).

One test relates to CWR22R. The experiment in a line: Downregulation of TMPRSS2 mRNA level in human 22Rv1 cells incubated for 24 hrs by qRT-PCR analysis. It is filed as functional, cell-based. The following applies: dose 100-500 nM. For orientation: Real-time PCR tracks product formation cycle by cycle.
In test [1] the target is Protein cereblon/Androgen receptor (Homo sapiens, UniProt P10275+Q96SW2). The experiment in a line: PROTAC activity at full length Androgen receptor/CRBN in human 22Rv1 cells assessed as reduction in full length androgen receptor level at 1 uM by Western blot analysis. It is filed as cell-based. The following applies: time 6.0 hrs.

The structures appear in SMILES notation.

Chain of Protein cereblon/Androgen receptor (P10275 whole entry, looked up): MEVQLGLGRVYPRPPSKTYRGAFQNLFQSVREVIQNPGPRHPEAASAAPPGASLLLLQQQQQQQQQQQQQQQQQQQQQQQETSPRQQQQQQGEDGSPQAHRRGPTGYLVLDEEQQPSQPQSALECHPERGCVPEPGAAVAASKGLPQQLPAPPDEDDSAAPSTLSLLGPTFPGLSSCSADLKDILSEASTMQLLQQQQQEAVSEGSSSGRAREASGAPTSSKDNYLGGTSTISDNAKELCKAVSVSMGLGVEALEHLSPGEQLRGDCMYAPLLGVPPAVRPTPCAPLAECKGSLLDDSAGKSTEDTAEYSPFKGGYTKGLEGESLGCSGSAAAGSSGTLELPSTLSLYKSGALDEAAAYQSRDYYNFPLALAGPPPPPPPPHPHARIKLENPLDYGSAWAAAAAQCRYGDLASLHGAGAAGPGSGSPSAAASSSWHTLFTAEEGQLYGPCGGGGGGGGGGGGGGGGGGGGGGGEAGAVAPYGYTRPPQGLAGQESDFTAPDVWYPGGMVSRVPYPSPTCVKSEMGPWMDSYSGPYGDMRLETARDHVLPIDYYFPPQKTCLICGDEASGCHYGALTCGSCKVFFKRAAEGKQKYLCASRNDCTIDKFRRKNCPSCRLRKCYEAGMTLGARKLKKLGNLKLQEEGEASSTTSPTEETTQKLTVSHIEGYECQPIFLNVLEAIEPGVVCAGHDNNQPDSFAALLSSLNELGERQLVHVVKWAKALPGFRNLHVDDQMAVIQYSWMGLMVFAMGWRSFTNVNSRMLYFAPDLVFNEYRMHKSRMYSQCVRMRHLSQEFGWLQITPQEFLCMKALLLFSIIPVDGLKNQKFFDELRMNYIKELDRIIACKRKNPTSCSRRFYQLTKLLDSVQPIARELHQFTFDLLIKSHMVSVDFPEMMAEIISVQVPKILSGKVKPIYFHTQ
Chain of Protein cereblon/Androgen receptor (Q96SW2 whole entry, looked up): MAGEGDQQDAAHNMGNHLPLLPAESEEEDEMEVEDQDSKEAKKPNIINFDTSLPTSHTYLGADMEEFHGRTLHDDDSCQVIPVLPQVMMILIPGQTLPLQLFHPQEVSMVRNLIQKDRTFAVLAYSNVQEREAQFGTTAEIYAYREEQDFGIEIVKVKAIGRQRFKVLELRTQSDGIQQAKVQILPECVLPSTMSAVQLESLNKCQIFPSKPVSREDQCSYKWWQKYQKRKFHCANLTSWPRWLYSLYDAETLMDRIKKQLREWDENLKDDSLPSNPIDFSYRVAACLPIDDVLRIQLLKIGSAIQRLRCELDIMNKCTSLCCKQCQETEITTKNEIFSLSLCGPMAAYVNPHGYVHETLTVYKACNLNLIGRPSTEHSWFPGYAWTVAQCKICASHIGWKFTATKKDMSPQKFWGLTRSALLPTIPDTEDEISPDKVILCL

With `CC(C)(c1ccc(OCCNc2cccc3c2C(=O)N(C2CCC(=O)NC2=O)C3=O)cc1)c1ccc(OCc2cccc(N3CCOCC3)n2)cc1` (configuration not stated), the Activity result was “Dose-dependent-effect” with CWR22R and “Time-dependent-effect” in test [1].
